The text below walks through data of patent US20130281397A1, “TREATMENT OF DISEASES BY EPIGENETIC REGULATION” (RVX Therapeutics Inc., priority 2012, published 2013).

Each structure is given as a SMILES string.

The subject of series [1] is c-myc. In words: Inhibition of c-myc expression (mRNA, real-time PCR) in MV4-11 cells. It counts as cell-based, Human. The following applies: 3 hours at 37° C., duplex with cyclophilin. Set-up: key: Active: Compounds with an IC50 value less than 30 μM were deemed to be active. As to the method: MV4-11 cells (2.5×10^4 cells) were plated in 96 well U-bottom plates with test compound or DMSO (0.1%), and incubated for 3 hours at 37° C. Cells were then harvested by centrifugation, lysed, and mRNA was isolated using the mRNA catcher plus kit (Invitrogen). Reverse transcription of the mRNA and duplex amplification of the c-myc and cyclophilin cDNAs were performed using the RNA Ultrasense kit (Invitrogen) and a ViiA7 real-time PCR machine (Applied Biosystems). IC50 values were determined from a dose response curve.
(Quantitative PCR measures a nucleic acid by following its amplification.)

Series [2] concerns Human AML MV-4-11 cells. The series can be described thus: Inhibition of cell proliferation in human AML MV-4-11 cells. The format is cell-based. Set-up: key: Active: Compounds with an IC50 value less than 30 uM were deemed to be active. Particulars: 72 hours, CellTiter Aqueous One Solution, 30 uM to 0.2 μM. As to the method:
MV4-11 cells: 96-well plates were seeded with 5×10^4 cells per well of exponentially growing human AML MV-4-11 (CRL-9591) cells and immediately treated with two-fold dilutions of test compounds, ranging from 30 uM to 0.2 μM. Triplicate wells were used for each concentration, as well as a media only and three DMSO control wells. The cells and compounds were incubated at 37° C., 5% CO2 for 72 hours before adding 20 μL of the CellTiter Aqueous One Solution (Promega) to each well and incubating at 37° C., 5% CO2 for an additional 3-4 hours. The absorbance was taken at 490 nm in a spectrophotometer and the percentage of proliferation relative to DMSO-treated cells was calculated after correction from the blank well. IC50 were calculated using the GraphPad Prism software.

Series [3] addresses T1, Brd4 bromodomain 1 (Homo sapiens, UniProt O60885).
T1 construct: made in house; host or cells: E. coli BL21(DE3)
In words: Inhibition of binding of tetra-acetylated histone H4 and Brd4 bromodomain 1 by TR-FRET. The following applies: His-tagged bromodomain 200 nM, biotinylated tetra-acetylated histone H4 peptide 25-50 nM, 2 hours at room temperature.

Turning to `COc1cc(OC)c2c(=O)n(C)c(-c3cc(C)c(O)c(C)c3)cc2c1` [Example 4, 3-(4-hydroxy-3,5-dimethylphenyl)-6,8-dimethoxy-2-methylisoquinolin-1(2H)-one], the melting point (in general, the temperature of the solid-liquid transition) is 253 to 254 °C. Further, in series [1], the “c-myc activity (<30 uM)” value was “Active”. For the same compound, the “cell proliferation activity (<30 uM)” value in series [2] is on record as “Active”. Moreover, the “FRET activity (<50 uM)” value in series [3] was “Active”.
Turning to `COc1cc(OC)c2c(=O)[nH]c(-c3cc(C)c(O)c(C)c3)nc2c1` [Example 10, 2-(4-hydroxy-3,5-dimethylphenyl)-5,7-dimethoxyquinazolin-4(3H)-one], the “c-myc activity (<30 uM)” value in series [1] is “Active”. Also, the “cell proliferation activity (<30 uM)” value in series [2] is “Active”. For the same compound, in series [3], the “FRET activity (<50 uM)” value is recorded as “Active”.
On to `COc1cc(OC)c2c(=O)[nH]c(-c3cc(C)c(OCCO)c(C)c3)nc2c1` [Example 16, 2-(4-(2-hydroxyethoxy)-3,5-dimethylphenyl)-5,7-dimethoxyquinazolin-4(3H)-one], for which the “c-myc activity (<30 uM)” value in series [1] is on record as “Active”. The “FRET activity (<50 uM)” value in series [3] is listed as “Active”.
In the case of `COc1cc(OC)c2c(=O)[nH]c(-c3cc(C)c(OCCN4CCOCC4)c(C)c3)nc2c1` [Example 17, 2-(3,5-dimethyl-4-(2-morpholinoethoxy)phenyl)-5,7-dimethoxyquinazolin-4(3H)-one], the “cell proliferation activity (<30 uM)” value in series [2] is reported as “Active”. Also, the “FRET activity (<50 uM)” value in series [3] is on record as “Active”.
As for `COc1cc(OC)c2c(=O)[nH]c(-c3ccc(N4CCN(C)CC4)cc3)nc2c1` [Example 38, 5,7-dimethoxy-2-(4-(4-methylpiperazin-1-yl)phenyl)quinazolin-4(3H)-one], the “c-myc activity (<30 uM)” value in series [1] is recorded as “Active”. Also, the “cell proliferation activity (<30 uM)” value in series [2] was “Active”. The “FRET activity (<50 uM)” value in series [3] was “Active”.
As for `COc1cc2cc(-c3cc(C)c(O)c(C)c3)[nH]c(=O)c2c(OC)c1CN1CCOCC1` [Example 46, 3-(4-hydroxy-3,5-dimethylphenyl)-6,8-dimethoxy-7-(morpholinomethyl)isoquinolin-1(2H)-one], the melting point lay within 158 to 161 °C. The “c-myc activity (<30 uM)” value in series [1] is “Active”. Also, in series [2], the “cell proliferation activity (<30 uM)” value is “Active”. The “FRET activity (<50 uM)” value in series [3] is on record as “Active”.
Take `Cc1cc(-c2nc3ccc(CN4CCOCC4)cc3c(=O)[nH]2)cc(C)c1O` [Example 57, 2-(4-hydroxy-3,5-dimethylphenyl)-6-(morpholinomethyl)quinazolin-4(3H)-one]: the “c-myc activity (<30 uM)” value in series [1] is “Active”. For the same compound, the “cell proliferation activity (<30 uM)” value in series [2] is “Active”. Besides, in series [3], the “FRET activity (<50 uM)” value is “Active”.
As to `COc1cc(OC)c2c(=O)[nH]c(-c3cc(C)c(OC)c(C)c3)cc2n1` [Example 58, 2,4-dimethoxy-7-(4-methoxy-3,5-dimethylphenyl)-1,6-naphthyridin-5(6H)-one], the melting point is 262 to 263 °C (dec.). Further, in series [3], the “FRET activity (<50 uM)” value is “Active”.
`COc1cc(OC)c2c(=O)[nH]c(-c3cc(C)c(OCC(=O)O)c(C)c3)nc2c1` [Example 59, 2-(4-(5,7-dimethoxy-4-oxo-3,4-dihydroquinazolin-2-yl)-2,6-dimethylphenoxy)acetic acid] showed a melting point of 270 to 272 °C. Moreover, the “c-myc activity (<30 uM)” value in series [1] was “Inactive”. For the same compound, in series [3], the “FRET activity (<50 uM)” value is given as “Active”.
The compound `COc1cc(OC)c2c(=O)[nH]c(-c3ccc(NC(=O)CO)cc3)nc2c1` [Example 60, N-(4-(5,7-dimethoxy-4-oxo-3,4-dihydroquinazolin-2-yl)phenyl)-2-hydroxyacetamide] showed a melting point of 318 to 319 °C. The “FRET activity (<50 uM)” value in series [3] is “Inactive”.
`COc1cc(OC)c2c(=O)[nH]c(-c3cc(C)c(O)c(C)c3)nc2n1` [Example 63, 2-(4-hydroxy-3,5-dimethylphenyl)-5,7-dimethoxypyrido[2,3-d]pyrimidin-4(3H)-one] gave a melting point of 297 to 299 °C. The “FRET activity (<50 uM)” value in series [3] is recorded as “Active”.
`COc1cc(OC)c2c(=O)[nH]c(-c3ccc(OC)c(CN4CCOCC4)c3)nc2c1` [Example 64, 5,7-dimethoxy-2-(4-methoxy-3-(morpholinomethyl)phenyl)quinazolin-4(3H)-one] had a melting point of 282.7 to 284.5 °C. In addition, in series [3], the “FRET activity (<50 uM)” value is listed as “Active”.
On the same counts, the results for `COc1cc(OC)c2c(=O)[nH]c(-c3cc(C)c(OCCO)c(C)c3)nc2n1` [Example 65, 2-(4-(2-hydroxyethoxy)-3,5-dimethylphenyl)-5,7-dimethoxypyrido[2,3-d]pyrimidin-4(3H)-one] are 255 to 256 °C and “Active”.
The compound `COc1cc(OC)c2c(=O)nc(-c3cc(C)c(O)c(C)c3)n(C)c2c1` [Example 66, 2-(4-hydroxy-3,5-dimethylphenyl)-5,7-dimethoxy-1-methylquinazolin-4(1H)-one] had a melting point of 188.5 to 189.1 °C. For the same compound, the “FRET activity (<50 uM)” value in series [3] is “Active”.
On to `COc1cc(OC)c2c(=O)[nH]c(-c3cc(C)c(OCCN4CCCC4)c(C)c3)nc2c1` [Example 67, 2-(3,5-dimethyl-4-(2-(pyrrolidin-1-yl)ethoxy)phenyl)-5,7-dimethoxyquinazolin-4(3H)-one], for which the “c-myc activity (<30 uM)” value in series [1] is recorded as “Active”. The “cell proliferation activity (<30 uM)” value in series [2] is given as “Active”.
As to `CC(=O)Nc1ccc2nc(-c3cc(C)c(OCCO)c(C)c3)[nH]c(=O)c2c1` [Example 68, N-(2-(4-(2-hydroxyethoxy)-3,5-dimethylphenyl)-4-oxo-3,4-dihydroquinazolin-6-yl)acetamide], the melting point was greater than 300 °C. Also, the “FRET activity (<50 uM)” value in series [3] was “Inactive”.
The corresponding values for `Cc1cc(-c2cc3nc(OC(C)C)cc(OC(C)C)c3c(=O)[nH]2)cc(C)c1O` [Example 69, 7-(4-hydroxy-3,5-dimethylphenyl)-2,4-diisopropoxy-1,6-naphthyridin-5(6H)-one] are 206 to 208 °C and “Active”.
On the same counts, the results for `COc1cc(OC)c2c(=O)[nH]c(-c3ccc(O)c(CCO)c3)nc2c1` [Example 70, 2-(4-hydroxy-3-(2-hydroxyethyl)phenyl)-5,7-dimethoxyquinazolin-4(3H)-one] are 249 to 250.3 °C and “Active”.
The compound `Cc1cc(C)c2c(=O)[nH]c(-c3cc(C)c(OCCO)c(C)c3)nc2c1` [Example 71, 2-(4-(2-hydroxyethoxy)-3,5-dimethylphenyl)-5,7-dimethylquinazolin-4(3H)-one] showed a melting point of 259.6 to 261.2 °C. Further, in series [3], the “FRET activity (<50 uM)” value is recorded as “Inactive”.
With `COc1cc(OC)c2c(=O)[nH]c(-c3ccc(N(CCO)CCO)cc3)nc2n1` [Example 72, 2-(4-(bis(2-hydroxyethyl)amino)phenyl)-5,7-dimethoxy-pyrido[2,3-d]pyrimidin-4(3H)one], the melting point lay in the range of 277 to 279 °C. The “FRET activity (<50 uM)” value in series [3] was “Active”.
The corresponding values for `COCCOc1c(C)cc(-c2nc3cc(OC)cc(OC)c3c(=O)[nH]2)cc1C` [Example 73, 5,7-dimethoxy-2-(4-(2-methoxyethoxy)-3,5-dimethylphenyl)quinazolin-4(3H)-one] are 201 to 202 °C and “Active”.
On the same counts, the results for `Cc1cc(-c2nc3cc(Cl)cc(Cl)c3c(=O)[nH]2)cc(C)c1OCCO` [Example 74, 5,7-dichloro-2-(4-(2-hydroxyethoxy)-3,5-dimethylphenyl)quinazolin-4(3H)-one] are 260.8 to 262.6 °C and “Active”.
For `COc1cc(OC)c2c(=O)[nH]c(-c3cc(C)c(OCCNS(C)(=O)=O)c(C)c3)nc2c1` [Example 96, N-(2-(4-(5,7-dimethoxy-4-oxo-3,4-dihydroquinazolin-2-yl)-2,6-dimethylphenoxy)ethyl)methanesulfonamide], the “c-myc activity (<30 uM)” value in series [1] is on record as “Inactive”. Also, the “cell proliferation activity (<30 uM)” value in series [2] is recorded as “Active”. For the same compound, the “FRET activity (<50 uM)” value in series [3] was “Active”.
`COc1cc(OC)c2c(=O)[nH]c(-c3ccc(OCC(=O)O)c(OC)c3)nc2c1` [Example 97, 2-(4-(5,7-dimethoxy-4-oxo-3,4-dihydroquinazolin-2-yl)-2-methoxyphenoxy)acetic acid] showed a melting point of 275 to 277 °C. The “FRET activity (<50 uM)” value in series [3] is “Active”.
With `COc1cc(O)c2c(=O)[nH]c(-c3cc(C)c(O)c(C)c3)nc2c1` [Example 98, 5-hydroxy-2-(4-hydroxy-3,5-dimethylphenyl)-7-methoxyquinazolin-4(3H)-one], the melting point lay in the range of 291.3 to 293 °C. Also, the “FRET activity (<50 uM)” value in series [3] is on record as “Inactive”.
